Series [1] can be described thus: Half-life when incubated with mouse liver microsomes (MLM). Format: in vitro ADME. As to conditions: half-life when incubated with mouse liver microsomes; read-out: MLM T½. The method, then: (§1) ^a Inhibition of GlcCer production in whole wild-type MDCKII cells. ^bHalf-life when incubated with mouse liver microsomes. ^cAreas under the drug concentration curve after single IP dose in mice (10 mg/kg). ^dReduction in brain levels of glucosylceramide in CBE mice after 14 days of qd dosing with test drug administered IP. NC=no change.
(Liver microsomes are vesicles of endoplasmic reticulum, rich in cytochrome P450 enzymes.)

Series [2] deals with T1, glucosylceramide synthase (GCS) (Canis lupus familiaris, UniProt A0A8I3MXG6).
T1 construct: endogenous in cells; host or cells: parental (wild-type) MDCKII cells
T1 sequence (A0A8I3MXG6 1-394): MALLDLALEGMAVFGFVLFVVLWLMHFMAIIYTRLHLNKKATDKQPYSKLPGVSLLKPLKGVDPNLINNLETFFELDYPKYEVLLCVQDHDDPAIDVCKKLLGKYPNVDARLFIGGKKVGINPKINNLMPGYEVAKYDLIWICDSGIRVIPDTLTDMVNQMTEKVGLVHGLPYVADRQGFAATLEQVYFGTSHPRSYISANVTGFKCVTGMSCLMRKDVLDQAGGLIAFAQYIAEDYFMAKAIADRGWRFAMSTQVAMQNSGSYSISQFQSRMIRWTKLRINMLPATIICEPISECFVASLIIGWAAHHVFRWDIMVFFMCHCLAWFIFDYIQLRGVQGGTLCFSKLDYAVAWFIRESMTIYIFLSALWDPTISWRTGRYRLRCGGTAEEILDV
The experiment in a line: GCS inhibition in MDCKII cells (inhibition of GlcCer production in whole wild-type MDCKII cells). Format: cell-based. The following applies: inhibition of GlcCer production in whole wild-type MDCKII cells, 24 hours; read-out: MDCK IC50.
Method: GCS Inhibition in MDCKII Cells
Parental (WT-)MDCKII cells were routinely maintained in medium consisting of Opti-MEM/F12 (1:1), 5% FBS, 100 U/mL of penicillin, 100 μg/mL streptomycin and 200 mM L-glutamine. MDCKII cells were newly thawed from frozen ampules every two months.
The inhibitor-ethanol solutions then were diluted 50× into 2 mM delipidated bovine serum albumin-phosphate buffered saline solution to make water-soluble glycosphingolipid inhibitor-bovine serum albumin complexes. The inhibitor-bovine serum album complexes were sterile-filtered and stored at −20° C. Prior to use, portions of the inhibitor-bovine serum albumin complexes were further diluted with Opti-F12 to make treatment solutions. Equal amounts of bovine serum albumin and ethanol were added into the control cultures. Cells (5×10^5) were seeded into 10-cm culture dishes containing 10 ml of Opti-F12 with 5% FBS. After 24 hours, the medium was replaced with fresh serum-free Opti-F12 medium, and cells were exposed to candidate GCS inhibitors at concentrations of 0, 1, 3, 10, 30, 100 and 300 nM for 24 hours.
Briefly, cells were washed with ice-cold phosphate buffered saline, fixed by methanol, and collected with rubber scraper. Chloroform was then added to yield a theoretical ratio of chloroform:methanol:water at 1:2:0.8 (v/v/v) to form a mono-phase. Cell debris and proteins were removed by centrifugation at 2200×g for 30 min. The supernatants were portioned by adding chloroform and 0.9% NaCl. […] A portion of purified glycosphingolipids normalized to 100 nmol of total phospholipids was analyzed by high performance thin layer chromatography. The thin layer chromatography separations were processed twice. The plate pretreated with 1% sodium borate was first developed in a solvent system consisting of chloroform/methanol (98/2, v/v). After air drying, the plate was then developed in a solvent system containing chloroform/methanol/water (70/30/4, v/v/v). The levels of glucosylceramide were detected by charring with 8% cupric sulfate in 8% phosphoric acid, and quantified by densitometric scanning using ImageJ, NIH Image.

A short description of series [3]: IP PK: areas under the drug concentration curve after single IP dose in mice. The following applies: for IP PK Brain AUC / AUC: mice, single IP dose 10 mg/kg; for AUC: mouse, plasma. Format: in vivo.
Series [4] relates to brain glucosylceramide (GCS inhibition). The experiment in a line: Reduction of brain glucosylceramide in CBE mice. Format: in vivo. The following applies: qd, 14 days. How it is done: Reduction of Brain Glucosylceramide and Glucosylsphingosine in CBE Mice
The reduction by inhibitors of GCS in brain glucosylceramide and glucosylsphingosine content was determined by the use of mice with Gba 1 mutant alleles, termed D409V/null. These are knock-in mice with a Gba 1 point mutation encoding Valine (V) 409 for the wild type (WT) Aspartate (D) on one missense allele and a null heteroallele [D409V/null (9V/null)]. The D409V/null and WT littermates were of mixed gender and mixed, but matched, genetic backgrounds of C57BL/129Sv/FVB. (Xu Y H, Sun Y, Barnes S, Grabowski G A (2010) Comparative therapeutic effects of velaglucerase alfa and imiglucerase in a Gaucher disease mouse model. PLoS One 5: e10750.) Mice were treated with intraperitoneal conduritol B epoxide (CBE), an irreversible inhibitor of beta-glucocerebrosidase (25 mg/kg/day) for all groups beginning at post-partum day 15. Mice were concurrently treated with GCS inhibitor or vehicle control for 14 days. The mice were sacrificed 2 hours following the last injection and tissues including brain, liver, spleen, kidney and lung were analyzed for glucosylceramide and glucosylsphingosine by mass spectrometry.
(§2) Mouse Tissue Lipid Analysis
(§3) Lipid extractions of liver, kidney, and brain were performed as previously described (7). Briefly, frozen liver (about 0.5 g), two kidneys (about 0.3 g) and whole brain (about 0.4 g) were individually homogenized in sucrose buffer (250 mM sucrose, pH 7.4, 10 mM HEPES and 1 mM EDTA), at 0.2 g tissue/1 mL of sucrose buffer, with a Tri-R homogenizer. Each 0.8 mL of homogenate was mixed with 2 mL of methanol and 1 mL of chloroform, bath sonicated for 1 min and incubated at room temperature for 1 h. Tissue debris were removed by centrifugation at 2,400× gravity for 30 min. The pellets were re-extracted by mixing with 1 mL of methanol, 0.5 mL of chloroform and 0.4 mL of 0.9% NaCl (chloroform/methanol/0.9% NaCl, 1:2:0.8), incubated at room temperature for 1 h and centrifuged at 2,400× gravity for another 30 min. Two extracts were combined and mixed with 4.5 mL of chloroform and 1.2 mL of 0.9% NaCl (chloroform/methanol/0.9% NaCl, 2:1:0.8). After centrifugation at 800× gravity for 5 min, lower layer was washed with 3 mL of methanol and 2.4 mL of 0.9% NaCl. Second washing was carried with 3 mL of methanol, 2 mL of water and 0.4 mL of 0.9% NaCl followed by a 5 min centrifugation at 800× gravity. The resultant lower phase was collected and dried under a stream of N2 gas.
The analysis of neutral glycosphingolipids from mouse liver, kidney, and brain was processed after alkaline methanolysis. […] lipids were incubated with 2 mL of chloroform and 1 ml of 0.21N NaOH in methanol for 2 h (kidney) or 7.5 h (liver and brain) at RT. The lipid extract was normalized to 0.5 μmol of total phospholipid phosphate (liver and kidney) or 2 μmol of total phospholipid phosphate (brain) for high performance thin layer chromatography analysis. After alkaline methanolysis, the brain lipids were passed through a silica gel column (7). Borate-impregnated thin layer chromatography plates were developed in a two solvent system. Plates were first developed in chloroform/methanol (98:2, v/v). The plates loaded with kidney and liver lipids were then developed in chloroform/methanol/water (64:24:4, v/v/v), and brain lipids were further separated in chloroform/methanol/water (60:30:6, v/v/v). GlcCer levels were quantified by comparison to known standards.
as §1

The subject of series [5] is brain glucosylceramide content. The experiment in a line: Brain glucosylceramide content after intraperitoneal administration to mice for 3 days. Format: in vivo. The following applies: intraperitoneal administration for 3 days. The method, then: The compounds were screened for inhibition of GCS in broken cell and whole cell assays, and for MDR1 substrate recognition.
as §2
as §3, with “Second washing was carried with 3 mL of methanol, 2 mL of water and 0.4 mL of 0.9% NaCl followed by a 5 min centrifugation at 800× gravity. The resultant lower phase was collected and dried under a stream of N2 gas.” left out
The analysis of neutral glycosphingolipids from mouse liver, kidney, and brain was processed after alkaline methanolysis. […] GlcCer levels were quantified by comparison to known standards.

SMILES strings stand for the structures. Where a name gives a salt, the structure may show the parent alone.

Results on eleven molecules are retold here after patent publication US11220479B2, “Glucosylceramide synthase inhibitors and therapeutic methods using the same” (THE REGENTS OF THE UNIVERSITY OF MICHIGAN, priority 2019, dated 2022).

Usually IC50 stands for the concentration at which inhibition is half-maximal. By AUC is commonly meant the area under the concentration-time curve, a measure of exposure. On to `O=C(CC1Cc2ccccc2C1)N[C@H](CN1CCCC1)[C@H](O)c1cccc(Cl)c1` [Example 1, N-((1R,2R)-1-(3-chlorophenyl)-1-hydroxy-3-(pyrrolidin-1-yl)propan-2-yl)-2-(2,3-dihydro-1H-inden-2-yl)acetamide], for which the half-life in series [1] amounted to 18 min. Moreover, the 50% inhibitory concentration (IC50) in series [2] was determined as 1 nM. In series [3], the “IP PK Brain AUC” value was 1109 ng·h/mL and the AUC turned out to be 1540 ng·h/mL. Also, the “Reduction in brain GlcCer in CBE mice” value in series [4] (36 μmol/kg/day IP) is reported as 23%.
Turning to `CC(C)(C)Oc1ccc([C@@H](O)[C@@H](CN2CCCC2)NC(=O)CC2Cc3ccccc3C2)cc1Cl` [Example 2, N-((1R,2R)-1-(4-(tert-butoxy)-3-chlorophenyl)-1-hydroxy-3-(pyrrolidin-1-yl)propan-2-yl)-2-(2,3-dihydro-1H-inden-2-yl)acetamide], in series [1], the half-life was 170 min. Besides, the IC50 in series [2] is 0.081 nM. Besides, in series [3], the “IP PK Brain AUC” value was determined as 1316 ng·h/mL and the AUC stood at 1990 ng·h/mL. Moreover, in series [4] (26 μmol/kg/day IP), the “Reduction in brain GlcCer in CBE mice” value is 21%.
For `O=C(CC1Cc2ccccc2C1)N[C@H](CN1CCCC1)[C@H](O)c1ccc(OC2CC2)c(Cl)c1` [Example 4, N-((1R,2R)-1-(3-chloro-4-cyclopropoxyphenyl)-1-hydroxy-3-(pyrrolidin-1-yl)propan-2-yl)-2-(2,3-dihydro-1H-inden-2-yl)acetamide] the same measures were 24 min, 0.14 nM, 293 ng·h/mL, 1020 ng·h/mL and 33%.
As for `CC1(Oc2ccc([C@@H](O)[C@@H](CN3CCCC3)NC(=O)CC3Cc4ccccc4C3)cc2Cl)COC1` [Example 5, N-((1R,2R)-1-(3-chloro-4-((3-methyloxetan-3-yl)oxy)phenyl)-1-hydroxy-3-(pyrrolidin-1-yl)propan-2-yl)-2-(2,3-dihydro-1H-inden-2-yl)acetamide], the half-life in series [1] turned out to be 40 min. Besides, the 50% inhibitory concentration (IC50) in series [2] was determined as 0.74 nM. In addition, in series [3], the “drug exposure in the brain versus compound lacking the 3-chloro substituent” value is reported as “improved”, the “IP PK Brain AUC” value was found to be 366 ng·h/mL and the AUC was determined as 849 ng·h/mL. Further, the “Reduction in brain GlcCer in CBE mice” value in series [4] (100 μmol/kg/day IP) is on record as 64%.
Take `CC1(C)COc2cc([C@@H](O)[C@@H](CN3CCCC3)NC(=O)CC3Cc4ccccc4C3)cc(Cl)c2O1` [Example 7, N-((1R,2R)-1-(8-chloro-2,2-dimethyl-2,3-dihydrobenzo[b][1,4]dioxin-6-yl)-1-hydroxy-3-(pyrrolidin-1-yl)propan-2-yl)-2-(2,3-dihydro-1H-inden-2-yl)acetamide]: the half-life in series [1] amounted to 44 min. Moreover, the IC50 in series [2] turned out to be 0.061 nM. For the same molecule, in series [3], the “drug exposure in the brain versus compound lacking the 3-chloro substituent” value is on record as “improved”, the “IP PK Brain AUC” value amounted to 129 ng·h/mL and the area under the curve (AUC) came to 590 ng·h/mL. In series [4] (26 μmol/kg/day IP), the “Reduction in brain GlcCer in CBE mice” value is given as 49%.
Regarding `O=C(CC1Cc2ccc(F)cc2C1)N[C@H](CN1CCCC1)[C@H](O)c1cccc(Cl)c1` (stereo partly drawn) [Example 9, N-((1R,2R)-1-(3-chlorophenyl)-1-hydroxy-3-(pyrrolidin-1-yl)propan-2-yl)-2-(5-fluoro-2,3-dihydro-1H-inden-2-yl)acetamide], the half-life in series [1] came out at 50 min. Further, the half-inhibitory concentration (IC50) in series [2] was found to be 0.8 nM. Besides, in series [3], the “IP PK Brain AUC” value was 869 ng·h/mL and the AUC is 2180 ng·h/mL. The “Reduction in brain GlcCer in CBE mice” value in series [4] (26 μmol/kg/day IP) amounted to 43%.
The corresponding values for `O=C(N[C@H](CN1CCCC1)[C@H](O)c1ccc(OC2CC2)c(Cl)c1)OC1Cc2ccccc2C1` [Example 12, 2,3-dihydro-1H-inden-2-yl ((1R,2R)-1-(3-chloro-4-cyclopropoxyphenyl)-1-hydroxy-3-(pyrrolidin-1-yl)propan-2-yl)carbamate] are 29 min, 0.32 nM, 210 ng·h/mL, 370 ng·h/mL and 32%.
In the case of `O=C(N[C@H](CN1CC[C@@H](F)C1)[C@H](O)c1cccc(Cl)c1)OC1Cc2ccccc2C1.O=C(O)C(=O)O` [Example 15, 2,3-dihydro-1H-inden-2-yl ((1R,2R)-1-(3-chlorophenyl)-3-((R)-3-fluoropyrrolidin-1-yl)-1-hydroxypropan-2-yl)carbamate oxalate], the half-life in series [1] stood at 0.8 min. In addition, the IC50 in series [2] turned out to be 19.5 nM. For the same molecule, in series [3], the “IP PK Brain AUC” value turned out to be 2656 ng·h/mL and the AUC was determined as 913 ng·h/mL.
The corresponding values for `[2H]C([2H])([2H])N(C(=O)CC1Cc2ccccc2C1)[C@H](CN1CCCC1)[C@H](O)c1cccc(Cl)c1` [Example 17, N-((1R,2R)-1-(3-chlorophenyl)-1-hydroxy-3-(pyrrolidin-1-yl)propan-2-yl)-2-(2,3-dihydro-1H-inden-2-yl)-N-(methyl-d3)acetamide] are 15 min, 11 nM, 742 ng·h/mL and 366 ng·h/mL.
For `O=C(CC1Cc2ccccc2C1)N[C@H](CN1CCCC1)[C@H](O)c1cc(Cl)ccc1F` [Example 23, N-((1R,2R)-1-(5-chloro-2-fluorophenyl)-1-hydroxy-3-(pyrrolidin-1-yl)propan-2-yl)-2-(2,3-dihydro-1H-inden-2-yl)acetamide], the half-life in series [1] amounted to 24 min. In addition, the IC50 in series [2] worked out at 0.17 nM. In series [3], the “IP PK Brain AUC” value is listed as “BLQ” and the AUC was found to be 644 ng·h/mL.
Consider `CCCCCCCC(=O)N[C@H](CN1CCCC1)[C@H](O)c1ccc2c(c1)OCCO2` [eliglustat tartrate, N-((1R,2R)-1-(2,3-dihydrobenzo-[b][1,4]dioxin-6-yl)-1-hydroxy-3-(pyrrolidin-1-yl)propan-2-yl)octanamide], for which the “decrease in brain glucosylceramide content” value in series [5] was “not seen”.
